Source: patent publication US20160022636A1, “PHYSIOLOGICAL LIGANDS FOR GPR139” (JANSSEN PHARMACEUTICA NV, priority 2013, published 2016)
“And” between values parts separate entries of the source, which are not always exact repeats. Identical values can stand only once. Like-named read-outs stand apart in the source and are kept apart here.

Tests used:
mouse GPR139 = target: T1, mouse GPR139 (Mus musculus, UniProt Q80UC8); assay: GTPγS binding dose response, COS7 membranes co-transfected with mouse GPR139 and GO2Q; format: biochemical; details: mouse GPR139, FIG. 2 C and D
T1 construct: expressed in transfected cells; host or cells: COS7
T1 sequence (Q80UC8 1-345): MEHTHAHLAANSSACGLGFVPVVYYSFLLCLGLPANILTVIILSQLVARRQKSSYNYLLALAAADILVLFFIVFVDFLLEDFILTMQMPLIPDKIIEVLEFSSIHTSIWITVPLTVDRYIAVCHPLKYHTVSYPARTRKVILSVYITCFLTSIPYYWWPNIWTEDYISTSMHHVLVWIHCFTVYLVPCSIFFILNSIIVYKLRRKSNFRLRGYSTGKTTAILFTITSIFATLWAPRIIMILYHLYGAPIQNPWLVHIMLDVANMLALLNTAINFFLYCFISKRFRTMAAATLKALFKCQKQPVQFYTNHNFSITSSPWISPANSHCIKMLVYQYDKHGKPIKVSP
From the text: (§1) FIG. 2: Tryptophan, phenylalanine, and their derivatives activate GPR139. Human (A and B) or mouse (C and D) GPR139 were co-transfected with chimeric G-protein GO2Q into COS7 cells. Cell membranes from transfected cells were used in GTPγS binding studies using various ligands at different concentrations to stimulate GPR139. Membranes from COS7 cells transfected by GO2Q were used as the controls (E and F).

GPR139 [1] = target: T2, GPR139 (Homo sapiens, UniProt Q6DWJ6); assay: GTPγS binding dose response, COS7 membranes co-transfected with human GPR139 and GO2Q; format: biochemical; design: expressed in transfected cells; host or cells: COS7; details: human GPR139, FIG. 2 A and B
T2 sequence (Q6DWJ6 1-353): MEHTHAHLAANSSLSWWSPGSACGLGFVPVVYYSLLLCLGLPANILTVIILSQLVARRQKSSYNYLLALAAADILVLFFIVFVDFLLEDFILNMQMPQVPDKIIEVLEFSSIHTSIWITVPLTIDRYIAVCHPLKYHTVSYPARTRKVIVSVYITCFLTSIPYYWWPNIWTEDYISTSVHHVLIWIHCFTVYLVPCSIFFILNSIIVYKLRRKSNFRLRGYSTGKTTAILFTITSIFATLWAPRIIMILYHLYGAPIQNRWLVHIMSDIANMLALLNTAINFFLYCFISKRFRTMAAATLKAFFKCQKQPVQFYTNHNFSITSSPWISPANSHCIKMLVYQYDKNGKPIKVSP
From the text: as §1

GPR139 [2] = target: T2, GPR139; assay: calcium mobilization assay (FLIPR), GPR139 transiently expressed in HEK293 cells; format: cell-based; design: expressed in transfected cells; host or cells: HEK293; details: similar to GTPγS binding studies
From the text: For these experiments human GPR139 was transiently expressed in HEK293 cells and calcium mobilization was stimulated using L-Trp, L-Phe or their derivatives.

GO2Q alone = assay: GTPγS binding assay, control membranes from COS7 cells expressing GO2Q alone (Ct-GO2Q); format: biochemical
From the text: as §1, with “Human” for “FIG. 2: Tryptophan, phenylalanine, and their derivatives activate GPR139. Human”
(§2) In order identify the ligands for GPR139 two improvements in the detection assay were made to allow for the ligands to be detected. First, we chose to use a GTPγS binding assay instead of using live cultured cells. The GTPγS binding assay is a cell free system that uses the cell membrane of the cell(s) of interest rather than the live cell(s). One advantage of this assay is that potential ligands present in the cell culture media are washed away when the cell membrane is prepared. This reduces the basal level of signal and increase the chance of detecting receptor ligands when assessing compounds that activate the receptor. Second, a GO2Q chimeric G-protein was created to be co-expressed with GPR139 in order to increase the signal-to-noise ratio in the GTPγS binding assay. Historically, the Gi, Go coupled GPCRs offer much greater signal-to-noise ratio in GTPγS binding studies. For Gs and Gq coupled GPCRs, although ligand-stimulated specific signals can be detected in a GTPγS binding assay, the signal-to-noise ratios are often very small. To address this a chimeric GO2-Gq chimeric G-protein, GO2Q, with the N-terminus from Go2 protein and the C-terminus from Gq protein.
(§3) To test for compounds that activate GPR139, different amino acids and their derivatives (Table 2) were tested as ligands in the GTPγS binding assay using cell membranes from COS7 cells co-expressing GPR139 and GO2Q. Cell membrane from COS7 cells expressing GO2Q alone or co-expressing other GPCRs were also tested in GTPγS binding assay in parallel as controls. Each compound was tested in triplicate.

GPR139 [3] = target: T2, GPR139; assay: GTPγS binding assay, membranes from COS7 cells co-expressing GPR139 and GO2Q, single concentration screen; format: biochemical; design: expressed in transfected cells; host or cells: COS7; details: for Activation levels of GPR139 (GTPγS binding signal), GPR139-GO2Q: 1 mM final concentration, single wells of triplicate, COS7 membranes co-expressing GPR139 and GO2Q; for activation of GPR139 in GTPγS binding assay (in words): 1 mM
Method: as §2, §3

[4] = 1 mM final concentration, single wells of triplicate, COS7 membranes with GO2Q alone (control panel)

Structure (SMILES) | Activation levels (GTPγS binding signal), Ct-GO2Q (GO2Q alone; [4]) | Activation levels of GPR139 (GTPγS binding signal), GPR139-GO2Q (GPR139 [3]) | other results
Cn1cc(C[C@@H](N)C(=O)O)c2ccccc21 [1-methyl-D-Trp] |  |  | dose response activation of GPR139 (in words) (mouse GPR139): specifically activate GPR139 in a dose-responsive manner; dose response activation of GPR139 (in words) (GPR139 [1]): specifically activate GPR139 in a dose-responsive manner; potency in calcium mobilization compared with L-Trp and L-Phe (in words) (GPR139 [2]): higher potencies
N[C@@H](Cc1ccc(O)cc1)C(=O)O [Tyr] | 2192 and 2191 and 2186 | 2752 and 2715 and 2921 | 
N[C@@H](CCC(=O)O)C(=O)O [Glu] | 2242 and 2310 and 2311 | 2847 and 2837 and 2841 | 
N[C@H](Cc1ccccc1)C(=O)O [D-Phe, D-phenylalanine] |  |  | dose response activation of GPR139 (in words) (mouse GPR139): specifically activate GPR139 in a dose-responsive manner; dose response activation of GPR139 (in words) (GPR139 [1]): specifically activate GPR139 in a dose-responsive manner
N[C@@H](Cc1c[nH]cn1)C(=O)O [His] | 2308 and 2259 and 2197 | 2640 and 2499 | 
NCCc1ccc(O)c(O)c1 [DA] | 2250 and 2213 and 2319 | 2688 and 2825 and 2708 | 
NCCc1c[nH]c2ccccc12 [Tryptamine, tryptamine] | 2025 and 2048 and 2088 | 6757 and 7686 and 7742 | dose response activation of GPR139 (in words) (mouse GPR139): specifically activate GPR139 in a dose-responsive manner; activation of GPR139 in GTPγS binding assay (in words) (GPR139 [3]): activated GPR139; dose response activation of GPR139 (in words) (GPR139 [1]): specifically activate GPR139 in a dose-responsive manner
CC(N)Cc1ccccc1 (centres unmarked) [Amphetamine, amphetamine] | 2331 and 2132 and 2001 | 7242 and 6744 and 7263 | dose response activation of GPR139 (in words) (mouse GPR139): specifically activate GPR139 in a dose-responsive manner; activation of GPR139 in GTPγS binding assay (in words) (GPR139 [3]): activated GPR139; dose response activation of GPR139 (in words) (GPR139 [1]): specifically activate GPR139 in a dose-responsive manner
N[C@@H](CO)C(=O)O [Ser] | 1975 and 2036 and 2164 | 2605 and 2458 and 2545 | 
N[C@@H](CSSC[C@H](N)C(=O)O)C(=O)O [Cystine] | 2242 and 2149 and 2229 | 2501 and 2652 and 2258 | 
NC(=O)CC[C@H](N)C(=O)O [Gln] | 2181 and 2327 and 2336 | 2583 and 2525 and 2766 | 
N[C@H](Cc1c[nH]c2ccccc12)C(=O)O [D-Trp, D-tryptophan] |  |  | dose response activation of GPR139 (in words) (mouse GPR139): specifically activate GPR139 in a dose-responsive manner; dose response activation of GPR139 (in words) (GPR139 [1]): specifically activate GPR139 in a dose-responsive manner
CNCC(O)c1ccc(O)c(O)c1 (centres unmarked) [Adrenaline] | 2240 and 2117 and 2045 | 2721 and 2624 and 2670 | 
NCCCC[C@H](N)C(=O)O [Lys] | 2400 and 2138 and 2041 | 2433 and 2617 and 2589 | 
O=C(O)[C@@H]1C[C@@H](O)CN1 [HO-Pro] | 2166 and 2152 and 2189 | 2825 and 2797 and 3109 | 
NCCc1c[nH]c2ccc(O)cc12 [Seretonin] | 2356 and 2154 and 2332 | 2839 and 2852 and 2920 | 
N=C(N)NCCC[C@H](N)C(=O)O [Arg] |  | 2806 and 2783 and 2528 | Activation levels (GTPγS binding signal), Ct-GO2Q (GO2Q alone): 2171 and 2131 and 2255
CC(C)[C@H](N)C(=O)O [Val] | 2072 and 2083 and 1977 | 2632 and 2689 and 2533 | 
NCC(=O)O [Gly] | 1936 and 2133 and 2289 | 2560 and 2505 and 2414 | 
NCCc1c[nH]cn1 [HA, histamine] | 2186 and 2204 and 2199 | 2737 and 2863 and 2899 | 
Cn1cc(C[C@H](N)C(=O)O)c2ccccc21 [1-methyl-L-Trp] |  |  | dose response activation of GPR139 (in words) (mouse GPR139): specifically activate GPR139 in a dose-responsive manner; dose response activation of GPR139 (in words) (GPR139 [1]): specifically activate GPR139 in a dose-responsive manner; potency in calcium mobilization compared with L-Trp and L-Phe (in words) (GPR139 [2]): higher potencies
NCCc1ccccc1 [β-phenylethylamine] |  |  | Activation levels (GTPγS binding signal), Ct-GO2Q (GO2Q alone; 1 mM final concentration, single wells of triplicate, COS7 membranes with GO2Q alone (control panel), listed as b-phenylethylamine): 2334 and 2065 and 2024; dose response activation of GPR139 (in words) (mouse GPR139): specifically activate GPR139 in a dose-responsive manner; activation of GPR139 in GTPγS binding assay (in words) (GPR139 [3]): activated GPR139; Activation levels of GPR139 (GTPγS binding signal), GPR139-GO2Q (GPR139 [3]; listed as b-phenylethylamine): 6705 and 7099 and 6634; dose response activation of GPR139 (in words) (GPR139 [1]): specifically activate GPR139 in a dose-responsive manner
NCCc1ccc(O)cc1 [Tyramine] | 2132 and 2277 and 2369 | 2883 and 2932 and 2873 | 
N[C@@H](CC(=O)O)C(=O)O [Asp] | 2177 and 2137 and 2132 | 2758 and 2922 and 2925 | 
